Assays:
Assay type in all cases: cell-based
[1] = system: CHO (Chinese Hamster Ovary) cell-derived cell line; assay: Average daily recombinant protein production using RaMP, Example 5
Procedure: Samples of harvested media were taken from the daily harvest and frozen. At the end of the production run, the frozen daily samples were tested using an anti-IgG (recognizing only intact IgG) ELISA assay in order to determine the protein yields. FIG. 1 is a graphical representation of the average daily yield of recombinant protein from both traditional perfusion and RaMP methods.
(§1) Cells were seeded at 5×10^5 cells/ml and were allowed to grow in the bioreactor for 6 days before the first harvest of recombinant protein on day 7. Conditions for this growth period are similar to those described in Example 1 above. Cells were grown in RBM12.1 media with a perfusion rate of 1 to 1.5 v/day. 1 mM sodium butyrate (final concentration) was added to perfusion medium and was perfused into the bioreactor on day 8. […] 2 mM sodium butyrate (final concentration) was added to the perfusion media and was perfused into the bioreactor on day 11. Cell viability was monitored daily by pulling samples from the bioreactor and trypan blue live/dead staining. Over the production run, the cell density reached upwards of 4.5×10^7 cells/ml. Using the RaMP method, the cell viability remained above 85% viable cells even with the sustained concentration of 2 mM sodium butyrate in the media. The average daily recombinant protein production reached over 0.6 g/L/day.

[2] = system: Chinese hamster ovary (CHO) cell line; assay: Effect of mode of sodium butyrate addition (bolus vs. gradual ramping) on cell viability
Procedure: In order to investigate if the method used to deliver sodium butyrate into the cell culture bioreactor would effect cell viability, two modes of delivery were tested: bolus introduction of the desired sodium butyrate concentration and the gradual “ramping” to the desired sodium butyrate concentration. The growth period conditions were identical to those described above.
On Day 9, sodium butyrate was introduced into the bioreactors. In the bolus condition, 2 mM sodium butyrate (final concentration) was added to the medium and perfused into the bioreactor. […] The maximal concentration of sodium butyrate was maintained for the rest of the production run. Cell viability was determined by pulling samples from each bioreactor and trypan blue staining for live/dead cells. After the bolus addition of 2 mM sodium butyrate, the cell viability started to decline (after day 9). The bioreactor for the bolus condition was stopped on day 19 after the viability dropped below 50%. In contrast, the gradual ramping of sodium butyrate from day 9 to day 14 maintained high cell viability (over 85%).

[3] = system: CHO (Chinese Hamster Ovary) cell-derived cell line; assay: Cell viability and cell density, Example 5 (RaMP)
Procedure: as §1

[4] = system: CHO (Chinese Hamster Ovary) cell-derived cell line; assay: Cell viability during production period, Example 4 (RaMP); conditions: RaMP: 0.5 mM sodium butyrate day 10, 1.0 mM day 14; entire production period
Procedure: Cells were seeded at 5×10^5 cells/ml and were allowed to grow for 9 days in the bioreactor before induction with butyrate for the RaMP method. Conditions for this growth period are similar to those described in Example 1 above. On day 10, media containing 0.5 mM sodium butyrate was perfused into the bioreactor. On day 14, media containing 1.0 mM sodium butyrate was perfused into the bioreactor.
Cell viability was monitored daily throughout the production period. Over the entire production period, cell viability remained high and never dropped below 85% for both traditional perfusion and RaMP methods.

## CCCC(=O)[O-].[Na+] [sodium butyrate]
[1]; 1 mM then 2 mM sodium butyrate, reached
  average daily recombinant protein production: over 0.6 g/L/day
[1]; sodium butyrate 1 mM, day 8 in culture
  Average total production: 102 mg/L/day
[1]; sodium butyrate 1 mM, day 9 in culture
  Average total production: 159 mg/L/day
[1]; sodium butyrate 1 mM, day 10 in culture
  Average total production: 343 mg/L/day
[1]; sodium butyrate 2 mM, day 11 in culture
  Average total production: 381 mg/L/day
[1]; sodium butyrate 2 mM, day 12 in culture
  Average total production: 332 mg/L/day
[1]; sodium butyrate 2 mM, day 13 in culture
  Average total production: 590 mg/L/day
[1]; sodium butyrate 2 mM, day 14 in culture
  Average total production: 498 mg/L/day
[1]; sodium butyrate 2 mM, day 15 in culture
  Average total production: 577 mg/L/day
[1]; sodium butyrate 2 mM, day 16 in culture
  Average total production: 549 mg/L/day
[1]; sodium butyrate 2 mM, day 17 in culture
  Average total production: 526 mg/L/day
[1]; sodium butyrate 2 mM, day 18 in culture
  Average total production: 684 mg/L/day
[2]; bolus 2 mM from Day 9, day 10 in culture
  % viable cells (bolus): 76%
[2]; bolus 2 mM from Day 9, day 11 in culture
  % viable cells (bolus): 73%
[2]; bolus 2 mM from Day 9, day 12 in culture
  % viable cells (bolus): 76%
[2]; bolus 2 mM from Day 9, day 13 in culture
  % viable cells (bolus): 72%
[2]; bolus 2 mM from Day 9, day 14 in culture
  % viable cells (bolus): 72%
[2]; bolus 2 mM from Day 9, day 15 in culture
  % viable cells (bolus): 84%
[2]; bolus 2 mM from Day 9, day 16 in culture
  % viable cells (bolus): 79%
[2]; bolus 2 mM from Day 9, day 17 in culture
  % viable cells (bolus): 76%
[2]; bolus 2 mM from Day 9, day 18 in culture
  % viable cells (bolus): 80%
[2]; bolus 2 mM from Day 9, day 19 in culture
  % viable cells (bolus): 44%
[2]; bolus 2 mM sodium butyrate introduced Day 9, day 9 in culture
  % viable cells (bolus): 89%
[2]; bolus 2 mM sodium butyrate, day 19, bioreactor stopped
  cell viability: below 50%
[2]; gradual ramping from 0.5 mM Day 9 to maximal by Day 14, day 10 in culture
  % viable cells (RaMP): 97%
[2]; gradual ramping from 0.5 mM Day 9 to maximal by Day 14, day 11 in culture
  % viable cells (RaMP): 97.6%
[2]; gradual ramping from 0.5 mM Day 9 to maximal by Day 14, day 12 in culture
  % viable cells (RaMP): 96.4%
[2]; gradual ramping from 0.5 mM Day 9 to maximal by Day 14, day 13 in culture
  % viable cells (RaMP): 97.1%
[2]; gradual ramping from 0.5 mM Day 9 to maximal by Day 14, day 14 in culture
  % viable cells (RaMP): 95.7%
[2]; gradual ramping of sodium butyrate from day 9 to day 14
  cell viability: over 85%
[2]; maximal concentration maintained after ramping, day 15 in culture
  % viable cells (RaMP): 96.7%
[2]; maximal concentration maintained after ramping, day 16 in culture
  % viable cells (RaMP): 97.2%
[2]; maximal concentration maintained after ramping, day 17 in culture
  % viable cells (RaMP): 96.4%
[2]; maximal concentration maintained after ramping, day 18 in culture
  % viable cells (RaMP): 97%
[2]; maximal concentration maintained after ramping, day 19 in culture
  % viable cells (RaMP): 96.9%
[2]; maximal concentration maintained after ramping, day 20 in culture
  % viable cells (RaMP): 95.8%
[2]; maximal concentration maintained after ramping, day 21 in culture
  % viable cells (RaMP): 95.4%
[2]; maximal concentration maintained after ramping, day 22 in culture
  % viable cells (RaMP): 98.7%
[2]; maximal concentration maintained after ramping, day 23 in culture
  % viable cells (RaMP): 90.6%
[2]; maximal concentration maintained after ramping, day 24 in culture
  % viable cells (RaMP): 89.7%
[2]; maximal concentration maintained after ramping, day 25 in culture
  % viable cells (RaMP): 88.8%
[2]; sodium butyrate from 0.5 mM on Day 9, gradually increased to maximal concentration by Day 14, day 9 in culture
  % viable cells (RaMP): 97.4%
[3]; RaMP, 1 mM then 2 mM sodium butyrate, over the production run
  cell density: > 4.5×10^7 cells/ml
[3]; after 1 mM sodium butyrate perfused on day 8
  cell viability: ≥ 85%
[3]; sustained concentration of 2 mM sodium butyrate in the media (from day 11)
  cell viability: above 85%
[4]
  cell viability: ≥ 85%

From patent US20080206819A1, “Intensified Perfusion Production Method” (priority 2006, published 2008)
